Data: US20260200928A1, “THERAPEUTIC COMPOUNDS” (Sanofi, priority 2022, published 2026)

Target: T1, human IL-17A (Homo sapiens, UniProt Q16552)
T1 construct: purchased R&D Systems 7955-IL/CF
T1 sequence (Q16552 24-155): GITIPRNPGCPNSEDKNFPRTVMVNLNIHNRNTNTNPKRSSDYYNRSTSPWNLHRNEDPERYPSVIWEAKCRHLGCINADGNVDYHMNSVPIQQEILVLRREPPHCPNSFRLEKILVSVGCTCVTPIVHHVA
Experiment: IL-17A AlphaLISA competition assay (block of IL-17A binding to its receptor IL-17RA)
Conditions: mean IC50 (n≥2), block of IL-17A binding to IL-17RA
Procedure: The ability of the compounds to block binding of IL-17A to its receptor, IL-17RA, was analysed in a competition assay using AlphaLISA technology (Perkin Elmer). The assay is a bead based AlphaLISA where the IL-17RA is captured on the acceptor bead via an Fc tag and IL-17A is captured on the streptavidin donor bead via a biotinylated anti-IL17A antibody.
Assay buffer was prepared by adding 0.05% Tween-20 (v/v) and 0.1% BSA to Phosphate Buffered Saline (PBS). The assay was carried out in 384-well white low volume plates (Perkin Elmer #6008359). 10 μL of a 7.5 nM stock of human recombinant IL-17A (R&D Systems 7955-IL/CF) diluted in assay buffer was dispensed into the assay plate and compounds or DMSO vehicle control were added in a volume of 75 nL using an acoustic dispenser (Beckman). The compounds were pre-incubated with the IL-17A for 30 min at room temperature prior to addition of 5 μL of a 5 nM stock of human recombinant IL-17RA/Fc chimera (R&D Systems 177-IR-100) diluted in assay buffer. The IL-17A was incubated with the receptor for a further 90 minutes at room temperature before addition of 5 μL of a mixture of anti-human Fc IgG acceptor beads (75 μg/mL, Perkin Elmer AL1030) and anti-IL-17A biotin conjugated antibody (5 nM, Abcam, #ab155575) in assay buffer. After a further 30 min incubation at room temperature, 5 μL of streptavidin donor beads (75 μg/mL, Perkin Elmer 6760002S) were added and the plate was incubated for 3 h in the dark.
The AlphaLisa signal was measured using the PheraSTAR plate reader (BMG). Data were analysed using GeneData Screener and fitted to a 4-parameter logistic equation. The IC50 values were calculated using the DMSO vehicle as the negative control and a high concentration (4 μM) of a reference IL-17A inhibitor as the positive control. All compounds were analysed at least in duplicate (n≥2).

Structure (SMILES)	IC50 [nM]
[2H]C(c1ccnc(NC(=O)[C@@H](NC(=O)c2ccnn2C)[C@H]2CC[C@H](C)CC2)c1)N1C[C@@H](C(F)(F)F)NC1=O (stereo partly drawn) [Example 232, 1-Methyl-N-((1S)-1-((1r,4S)-4-methylcyclohexyl)-2-oxo-2-((4-(((S)-2-oxo-4-(trifluoromethyl)imidazolidin-1-VI)methyl-d)pyridin-2-yl)amino)ethyl)-1H-pyrazole-5-carboxamide]	53
Cn1nccc1C(=O)N[C@H](C(=O)Nc1cc(C(NC(=O)CCC(F)(F)F)C2CC2)ccn1)[C@H]1CC[C@H](C)CC1 (stereo partly drawn) [Example 236, N-((1S)-2-((4-(cyclopropyl(4,4,4-trifluorobutanamido)methyl)pyridin-2-yl)amino)-1-((1r,4S)-4-methylcyclohexyl)-2-oxoethyl)-1-methyl-1H-pyrazole-5-carboxamide]	26
C[C@@H]1CNC(=O)N1Cc1ccnc(NC(=O)[C@@H](NC(=O)OC(C)(C)C)[C@H]2CC[C@H](C)CC2)c1 [Example 29, Tert-butyl ((S)-2-((4-(((R)-5-methyl-2-oxoimidazolidin-1-yl)methyl)pyridin-2-yl)amino)-1-((1r,4S)-4-methylcyclohexyl)-2-oxoethyl)carbamate]	428
CCc1nonc1C(=O)N[C@H](C(=O)Nc1cc(C(COC)N2C[C@@H](C(F)(F)F)NC2=O)ccn1)[C@H]1CC[C@H](C)CC1 (single isomer, unassigned) [Example 88]	4
COCC(c1ccnc(NC(=O)[C@@H](NC(=O)c2cnc(C)nc2C(F)(F)F)[C@H]2CC[C@H](C)CC2)c1)N1C[C@@H](C(F)(F)F)NC1=O (mixture of isomers) [Example 90, N-((1S)-2-((4-(2-methoxy-1-((RS)-2-oxo-4-(trifluoromethyl)imidazolidin-1-yl)ethyl)pyridin-2-yl)amino)-1-((1r,4S)-4-methylcyclohexyl)-2-oxoethyl)-2-methyl-4-(trifluoromethyl)pyrimidine-5-carboxamide]	4520
CCc1nocc1C(=O)N[C@H](C(=O)Nc1cc(CN2C[C@@H](C(F)(F)F)NC2=O)ccn1)C1CCC(F)(F)CC1 [Example 13, N-((S)-1-(4,4-difluorocyclohexyl)-2-oxo-2-((4-(((S)-2-oxo-4-(trifluoromethyl)imidazolidin-1-yl)methyl)pyridin-2-yl)amino)ethyl)-3-ethylisoxazole-4-carboxamide]	122
CC(C)c1nocc1C(=O)N[C@H](C(=O)Nc1cc(CN2C[C@@H](C(F)(F)F)NC2=O)ccn1)[C@@H](C)OC(C)(C)C [Example 130, N-((2S,3R)-3-(tert-butoxy)-1-oxo-1-((4-(((S)-2-oxo-4-(trifluoromethyl)-imidazolidin-1-yl)methyl)-pyridin-2-yl)amino)butan-2-yl)-3-isopropyl-isoxazole-4-carboxamide]	350
CCn1nccc1C(=O)N[C@H](C(=O)Nc1cc(C(C)(C)N2C[C@@H](C(F)(F)F)NC2=O)ccn1)C1CCC(F)(F)CC1 [Example 174, N-((S)-1-(4,4-difluorocyclohexyl)-2-oxo-2-((4-(2-((S)-2-oxo-4-(trifluoromethyl)imidazolidin-1-yl)propan-2-yl)pyridin-2-yl)amino)ethyl)-1-ethyl-1H-pyrazole-5-carboxamide]	362
COC[C@H](c1ccnc(NC(=O)[C@@H](NC(=O)c2nonc2C2CC2)C(C2CC2)C2CC2)c1)N1C[C@@H](C(F)(F)F)NC1=O [Example 227, 4-cyclopropyl-N-((S)-1,1-dicyclopropyl-3-((4-((S)-2-methoxy-1-((S)-2-oxo-4-(trifluoromethyl)imidazolidin-1-yl)ethyl)pyridin-2-yl)amino)-3-oxopropan-2-yl)-1,2,5-oxadiazole-3-carboxamide]	20
CC(C)(C)OC(=O)NC(C(=O)Nc1cc(CN2C[C@@H](C(F)(F)F)NC2=O)ccn1)C1CCC(F)(F)CC1 (stereo in doubt) [Example 6, Tert-butyl N-[(1S)-1-(4,4-difluorocyclohexyl)-2-oxo-2-[[4-[[(4S)-2-oxo-4-(trifluoro-methyl)imidazolidin-1-yl]methyl]-2-pyridyl]amino]ethyl]carbamate]	566
CCc1nocc1C(=O)N[C@H](C(=O)Nc1cc([C@@H](COC)N2C[C@@H](C(F)(F)F)NC2=O)ccn1)C1CCC(C(F)(F)F)CC1 (stereo partly drawn) [Example 300, 3-ethyl-N-((1S)-2-((4-((S)-2-methoxy-1-((S)-2-oxo-4-(trifluoromethyl)-imidazolidin-1-yl)ethyl)pyridin-2-yl)amino)-2-oxo-1-(4-(trifluoromethyl)-cyclohexyl)ethyl)isoxazole-4-carboxamide]	39
C[C@@H]1CN(Cc2ccnc(NC(=O)[C@@H](NC(=O)c3ccnn3C)C(C3CC3)C3CC3)c2)C(=O)N1 [Example 33, N—((S)-1,1-dicyclopropyl-3-((4-(((R)-4-methyl-2-oxoimidazolidin-1-yl)methyl)pyridin-2-yl)amino)-3-oxopropan-2-yl)-1-methyl-1H-pyrazole-5-carboxamide]	1010
C[C@H]1CC[C@H]([C@H](NC(=O)c2ccnn2CCC(O)C(F)(F)F)C(=O)Nc2cc(CN3C[C@@H](C(F)(F)F)NC3=O)ccn2)CC1 (single isomer, unassigned) [Example 68]	136
CN1C[C@H]2[C@@H]([C@H]1C(=O)N[C@H](C(=O)Nc1cc(C(NC(=O)CCC(F)(F)F)C3CC3)ccn1)C(C1CC1)C1CC1)C2(C)C (single isomer, unassigned) [Example 56]	7420
COCC(c1ccnc(NC(=O)C(NC(=O)C(F)(F)c2cnccn2)C2CCC(C)CC2)c1)N1CC(C(F)(F)F)NC1=O (single isomer, unassigned) [Example 251]	33

More lines, now with the values ahead:

IC50 [nM]	Structure (SMILES)
73	COCC(NC(=O)CCC(F)(F)F)c1ccnc(NC(=O)[C@@H](NC(=O)c2nonc2C2CC2)C2CCC(F)(F)CC2)c1 (single isomer, unassigned) [Example 133]
158	CCc1oncc1C(=O)N[C@H](C(=O)Nc1cc(C[C@H]2C[C@@H](C(F)(F)F)NC2=O)ccn1)C1CCC(F)(F)CC1 [Example 218, N-((S)-1-(4,4-difluorocyclohexyl)-2-oxo-2-((4-(((3S,5S)-2-oxo-5-(trifluoromethyl)pyrrolidin-3-yl)methyl)pyridin-2-yl)amino)ethyl)-5-ethylisoxazole-4-carboxamide]
14900	CC(C)(C)OC(=O)N[C@H](C(=O)Nc1cc(CN2C(=O)NC(C)(C)C2=O)ccn1)C1CCC(F)(F)CC1 [Example 27, Tert-butyl (S)-(1-(4,4-difluorocyclohexyl)-2-((4-((4,4-dimethyl-2,5-dioxoimidazolidin-1-yl)methyl)pyridin-2-yl)amino)-2-oxoethyl)carbamate]
24	CCc1conc1C(=O)N[C@H](C(=O)Nc1cc([C@@H](COC)N2CC(F)(F)CNC2=O)ccn1)C1CCC(F)(F)CC1 [Example 177, N-((S)-2-((4-((S)-1-(5,5-difluoro-2-oxotetrahydropyrimidin-1(2H)-yl)-2-methoxyethyl)pyridin-2-yl)amino)-1-(4,4-difluorocyclohexyl)-2-oxoethyl)-4-ethylisoxazole-3-carboxamide]
282	CC(C)n1nccc1C(=O)N[C@H](C(=O)Nc1cc(C(NC(=O)CCC(F)(F)F)C2CC2)ccn1)C(C1CC1)C1CC1 (single isomer, unassigned) [Example 41]
31	CC(C)n1nccc1C(=O)N[C@H](C(=O)Nc1cc(C(NC(=O)CCC(F)(F)F)C2CC2)ccn1)[C@H]1CC[C@H](C)CC1 (stereo partly drawn) [Example 106, N-((1S)-2-((4-(cyclopropyl(4,4,4-trifluorobutanamido)methyl)pyridin-2-yl)amino)-1-((1r,4S)-4-methylcyclohexyl)-2-oxoethyl)-1-isopropyl-1H-pyrazole-5-carboxamide]
31	COC[C@H](c1ccnc(NC(=O)[C@@H](NC(=O)c2nocc2C(C)C)C2CCC(F)(F)CC2)c1)N1C[C@@H](C(F)(F)F)NC1=O [Example 188, N-((S)-1-(4,4-difluorocyclohexyl)-2-((4-((S)-2-methoxy-1-((S)-2-oxo-4-(trifluoromethyl)imidazolidin-1-yl)ethyl)pyridin-2-yl)amino)-2-oxoethyl)-4-isopropylisoxazole-3-carboxamide]
9	CCC(c1ccnc(NC(=O)C(NC(=O)c2ccnn2CC)C2CCC(C)CC2)c1)N1CC(C(F)(F)F)NC1=O [Example 258, 1-ethyl-N-((S)-1-((1r,4S)-4-methylcyclohexyl)-2-oxo-2-((4-((R)-1-((S)-2-oxo-4-(trifluoromethyl)imidazolidin-1-yl)propyl)pyridin-2-yl)amino)ethyl)-1H-pyrazole-5-carboxamide]
